Test results as given in patent US20050171014A1, “Conjugates of ligand linker and cytotoxic agent and related composition and methods of use” (Government of the United States of America, represented by …, priority 2003, published 2005).
Starred links: 1 amine or outer side, 2 acyl side, 3 side chain; linkers in the order of their positions; H or OH if unused. Non-standard residues stand in square brackets, D forms with d. Residues, ends and D or L forms follow the SMILES beside them. NMePhe(β,β-Me2) = CN[C@H](C(=O)O)C(C)(C)c1ccccc1; X1 = C/C(=C\[C@H](C(C)C)N(C)[*:1])C(=O)[*:2]; Tle = CC(C)(C)[C@H](N)C(=O)O; Nle = CCCC[C@H](N)C(=O)O

What was measured:
[1] = tested on: gastrin receptor-expressing 3T3 cells; type: cell-based; conditions: methods of Example 7
Procedure: Isogenic cell lines, one transfected with the target cell surface receptor and the parent cell line without detectable receptor expression, were used for determination of selective activity of toxin conjugates. Transfection of NIH/3T3, CHO and HeLa cells (American Type Culture Collection, Manassas, Va.) with gastrin receptor cDNA (prepared as described in Tarasova et al., J. Biol. Chem. 272: 14817-14824 (1997)) was performed as described (Tarasova et al., J Biol. Chem. 272(23): 14817-14824 (1997)). For the tests, the cells were seeded in 96-well plates at a density of 500-1000 cells per well and allowed to attach for 24 hours. The compounds were added to the cells at concentrations ranging from 10 pM to 10 μM and the cells were grown in a CO2 incubator in the presence of compounds for 4-5 days. The cell number was estimated with either the methylthiazolyldiphenyl-tetrazolium bromide (MTT) assay (Alley et al., Cancer Res. 48(3): 589-601 (1988)) or sulforhodamine assay as described in Skehan et al., J. Natl. Cancer Inst. 82(13): 1107-1112 (1990)).

[2] = tested on: cathepsin B and cathespin D

In the case of `CCCC[C@H](NC(=O)[C@H](Cc1c[nH]c2ccccc12)NC(=O)CNC(=O)[C@H](Cc1ccc(O)cc1)NC(=O)[C@H](C)NC(=O)[C@H](CCC(=O)O)NC(=O)[C@H](CCC(=O)O)NC(=O)[C@H](CCC(=O)O)NC(=O)[C@H](C)NC(=O)[C@H](CC(C)C)NC(=O)[C@H](C)NC(=O)[C@H](CC(C)C)NC(=O)[C@@H](NC(=O)/C(C)=C/[C@H](C(C)C)N(C)C(=O)[C@@H](NC(=O)[C@@H](NC)C(C)(C)c1ccccc1)C(C)(C)C)C(C)C)C(=O)N[C@@H](CC(=O)O)C(=O)N[C@@H](Cc1ccccc1)C(N)=O` (H-[NMePhe(β,β-Me2)][Tle][X1]VLALAEEEAYGW[Nle]DF-NH2), the IC50 [1] is reported as 1000 nM and the “products of hydrolysis by lysosomal proteases” value [2] is reported as “generated mostly pentapeptide or SPA110 extended by Val-Leu on the C-terminus”.
